Source: patent publication US9834535B2, “Sulfamate derivative compounds for use in treating or alleviating pain” (Bio-Pharm Solutions Co., Ltd., priority 2013, dated 2017)

How the values were obtained:
[1] = system: CFA-induced pain model; test: Antiallodynic activity on Complete Freund's Adjuvant (CFA)-induced inflammatory pain model (von Frey); type: in vivo, Sprague-Dawley rats; conditions: Rattus norvegicus, ip, 0.5 h, read-out: CFA model: effect (%) at the concentration administered
Protocol: Male, Sprague-Dawley rats (200-220 g, Nara Bio, Korea) were habituated for 1 week before surgery and allowed free access to food and water throughout the experimentation. Room temperature and humidity were maintained at 24±2° C. and 50±10%, respectively.
CFA-induced inflammatory pain was induced by the procedure of Nagakura et al. (2003) and Gregory P. et al. (2010) with minor modifications. CFA (sigma, USA) was injected in the left plantar with a 100 ul volume under gaseous anesthesia with isoflurane a 4:4 flow ratio of NO2 Sham controls were injected with 100 ul of saline and vehicle controls were identical to CFA infusion model, except for administration of vehicles.
(§1) Tactile sensitivity (Mechanical allodynia) was evaluated using von Frey monofilaments before and after treatment, and animals were used withdrawal threshold value was less than 4 g. One week after surgery, CFA-infused animals (n=4˜6), sham-operated animals (n=12), and vehicle-operated animals (n=17) were tested for tactile sensitivity with von Frey monofilaments 3 trials in each animal. All Animals were placed in a stainless steel mashed chamber and habituated for 30 min in the test box. The tactile sensitivity for ipsilateral hind paw was measured using the up-and-down method (Dixon, 1980) with seven von Frey monofilaments (0.4, 1, 2, 4, 6, 8, and 15 g) to 3 trials. Tactile sensitivity test was followed by Dixon's method (Dixon, 1980). The 50% paw withdrawal threshold for each paw was calculated using the following formula: [Xth] log=[vFr] log+ky where [vFr] is the force of the last von Frey used, k=0.2249 which is the average interval (in log units) between the von Frey monofilaments, and y is a value that depends upon the pattern of withdrawal responses (Dixon, 1980).
[…] The test was performed peak time of efficacy (0.5 hr) after compound administration.
The relative values compared to the sham (% control) were calculated and shown in Table 4, which show an antiallodynic effect of the compound of Examples on CFA-induced pain model in rats.

[2] = system: Post operation-induced pain model; test: Antiallodynic activity on post operative-induced pain model (von Frey); type: in vivo, Sprague-Dawley rats; conditions: 2 mg/kg, 0.5 h, rat, intraperitoneal
Protocol: Male Sprague-Dawley rats′(Orient Bio, Korea), 300˜320 g, total of 201 rats were used (details in Table 7). Rats were habituated at least 3 clays before surgery and free access to food and water (room temperature and humidity were maintained at 24±2° C. and 50±10%, respectively). The process of performing the post-operation model's surgery was adapted from Brennan et al (1996). At first, rats with allodynia (threshold valueless than 8 g) were excluded in Pre-von Frey Test. During the post-operation surgery, rats were anesthetized under gaseous anesthesia with 2% isoflurane. Rats were laid face down on a plate fixed at 37° C. to prevent against hypothermia. The ipsilateral plantar aspect (left side) of the hind paw was prepared in a sterile manner with a 10% povidone-iodine solution. […]
For efficacy measure, the threshold value of group C was assigned 100% efficacy, and the percentage of the threshold values of group A compared to group C (for each different dose level) were calculated as the efficacies. Base on these efficacy values, ED50 was calculated using log fitting. […]
For pain threshold test, all animals were placed in a stainless steel meshed chamber and habituated for 30 min in the test box. The tactile sensitivity of the ipsilateral hind paw was measured using the up-and-down method (Dixon, 1980) with seven von Frey monofilaments (0.4, 1, 2, 4, 6, 8, and 15 g) using 3 trials. […]

[3] = system: tail-flick withdrawal latency; test: Tail-flick test; type: in vivo, ICR mice; conditions: mouse, oral
Protocol: To examine the pain relief effect of the sulfamate compounds, a tail-flick test was conducted in general pain animal model referring to Current Protocols in Neuroscience; Behavioral Neuroscience Unit 8.9.
(§2) ICR mice (male, 25-30 g; Orient Bio, Korea) were habituated before test in test room for 1 hour. Animals were fasted 2 hr before administration of compounds. Each of Compound was orally administered at the close of 150 mg/kg, 10 ul/g, bw (n=7˜10/group). All compounds were dissolved in a vehicle of 30% (v/v) PEG 400 or 20% (v/v) Tween 80. The control group was treated the vehicle without compounds.
After the administration of compounds, the mice tail were put on a tail-flick analgesia meter. To avoid tissue damage, maximal exposure time to pain stimuli was restricted to 15 s. The withdrawal latency was measured as the time to the point when each mouse response to the stimulus. The relative values compared to the control (% control) were calculated.
The relative values compared to the sham were calculated and shown in Table 12, which show effect of the compound of examples on tail-flick test in […].

[4] = system: hot plate withdrawal latency; test: Hot-plate test; type: in vivo, ICR mice; conditions: mouse, oral
Protocol: To examine the pain relief effect of the sulfamate derivative compounds, a hot-plate test was conducted in general pain animal model referring to Current Protocols in Neuroscience; Behavioral Neuroscience Unit 8.9.
as §2, with “30-35 g:” for “25-30 g;”, “Each of Compound was orally administered at the close of 150 mg/kg, 10 ul/g, bw (n=7˜10/group).” left out
[…] (Hu, X. et al, 2008), and then, measured as the withdrawal latency (cut-off time: 30 sec) time until the point when each mouse was taking off a paw from the plate, shaking, licking a paw or hind leg, or jumping from the plate.

[5] = system: SNL model; test: Antiallodynic activity on Chung model (SNL, spinal nerve ligation; von Frey); type: in vivo, Sprague-Dawley rats; conditions: rat, oral, 0.5 h; for ED50: von Frey
Protocol: Male. Sprague-Dawley rats (200-220 g, Orient Bio, Korea) were habituated for 1 week before the experiment and allowed free access to food and water throughout the experimentation. Room temperature and humidity were maintained at 24±2° C. and 50±10%, respectively. Neuropathic surgery (SNL, Spinal nerve ligation) model was clone as described in Kim and Chung (1992). Briefly, animal under gaseous anesthesia with isoflurane a 4:4 flow ratio of NO2. The left lumber spinal nerve L5 and L6 were isolated and tightly ligated with 4-0 silk thread. The wound was treated with a gentamicin antibiotics solution (4 mg/kg, 4 ul/g, bw), and the wound muscle was closed with cat cut chrom 4/0 thread and skin was closed dafilon 4/0 tread. Sham controls were prepared in the same manner as the spinal nerves were exposed, but no ligated L5 and L6 nerves. But, vehicle controls were identical to SNL model, except for administration of vehicles.
as §1, with “treatment” for “treatment,”, “SNL-operated” for “CFA-infused”, “(n=4˜10)” for “(n=12),”, “(n=4˜13)” for “(n=17)”
All animals were fasted 18 h before the administration of the compounds. The antiallodynic effect of the compounds were evaluated at the various dose (n=5˜6), orally administrated in a volume of 5 ul/g, bw in a vehicle of 30% (v/v) PEG 400 or 20% (v/v) Tween 80 or Saline. […]
The relative values compared to the sham group (% control) were calculated and shown in Table 5, which show an antiallodynic effect of the test compounds on SNL model in rats.

CC1(C)O[C@@H](COS([NH-])(=O)=O)[C@H](c2ccccc2Cl)O1.[Na+] [Example 177, sodium ((((4S,5S)-5-(2-chlorophenyl)-2,2-dimethyl-1,3-dioxolan-4-yl)methoxy)sulfonyl)amide]
response vs control in vivo at 15 mg/kg [1]: 67.2% | Post Operation: effect (%) at the concentration administered [2]: ^#2 (64.4%, 0.5 h)

CC1(C)O[C@@H](COS(N)(=O)=O)[C@H](c2ccccc2F)O1 [Example 16, ((4S,5S)-5-(2-fluorophenyl)-2,2-dimethyl-1,3-dioxolan-4-yl)methyl sulfamate]
tail-flick test: dose [3]: > 200 mg/kg | ED50 ([4]; 1 h): 116 mg/kg | ED50 [5]: 24.6 mg/kg

CC1(C)O[C@H](c2ccccc2F)[C@@H](COS(N)(=O)=O)O1 [Example 15, ((4R,5R)-5-(2-fluorophenyl)-2,2-dimethyl-1,3-dioxolan-4-yl)methyl sulfamate]
tail-flick test: dose [3]: > 200 mg/kg | ED50 ([4]; 0.5 h): 113 mg/kg | ED50 [5]: 69.8 mg/kg

CC1(C)O[C@@H](COS(N)(=O)=O)[C@H](c2ccccc2I)O1 [Example 28, ((4S,5S)-5-(2-iodophenyl)-2,2-dimethyl-1,3-dioxolan-4-yl)methyl sulfamate]
tail-flick test: dose [3]: > 200 mg/kg | Hot plate test: effect (%) at the concentration administered ([4]; 100 mg/kg): ^#100 (126.4%) | response vs control in vivo at 40 mg/kg ([1]; 40 mg/kg, rat, intraperitoneal): 17.8% | response vs control in vivo at 90 mg/kg ([5]; 90 mg/kg, read-out: SNL model: effect (%) at the concentration administered): 72.6%

CC1(C)O[C@H](c2ccccc2I)[C@@H](COS(N)(=O)=O)O1 [Example 27, ((4R,5R)-5-(2-iodophenyl)-2,2-dimethyl-1,3-dioxolan-4-yl)methyl sulfamate]
response vs control in vivo at 18 mg/kg ([1]; 18 mg/kg, rat, intraperitoneal): 20.2% | response vs control in vivo at 50 mg/kg ([5]; 50 mg/kg, read-out: SNL model: effect (%) at the concentration administered): 17.3%
